Assay results reported in US20200375929A1, “METHODS AND COMPOSITIONS FOR THE TREATMENT OF DISEASES ASSOCIATED WITH CANCER, INFLAMMATION, OR IMMUNE RESPONSE” (Washington University, priority 2017, published 2020).
Entries after “also recorded” stand apart in the source; their conditions may differ.

Experiments:
Ikb-ζ = experiment: IL17A-mediated Ikb-ζ induction in HaCat cells (western blot); format: cell-based, human; settings: DI 12 h at non-toxic concentrations, IL17A 100 ng/ml up to 4 h
IκBζ [1] = experiment: Ikb-ζ protein in LPS-stimulated human monocytes (western blot); format: cell-based; settings: human monocytes, DI 12 h, LPS 100 ng/ml
Method: (§1) Cells were lysed in RIPA Lysis Buffer System (Santa Cruz) and heat-denatured at 95° C. for 5 min in reducing sample buffer (BioRad). Proteins were separated on 4%-20% polyacrylamide gradient gels (BioRad) and transferred onto 0.45 μm pore size PVDF membranes (Millipore). Non-specific binding was blocked with 5% skim milk (or 5% BSA when phospho-proteins were analyzed), and membranes were probed with primary antibodies specific to Nrf2 (#12721), HO-1 (#70081), IκBζ (mouse specific, #93726), IκBζ(#9244), ATF3 (#D2Y5W), IRAK1 (#4504; sensitivity of IRAK1 detection diminishes upon IRAK1 K63 ubiquitination), phospho-IKK (Ser176/180, #2697), p62/SQSTM1 (#5114), phospho-eIF2α (Ser51, #9721), eIF2α (#5324) from Cell Signaling; GAPDH (sc-25778), IκBα (sc-1643), ATF3 (sc-188), SDHA (sc-166909) from Santa Cruz; NQO1 (ab28947) from Abeam, followed by incubation with anti-rabbit-HRP (1:10,000; sc-2030) or anti-mouse-HRP (1:10,000; sc-2031) from Santa Cruz and Clarity western ECL substrate (Bio-Rad). […]
Blood from healthy donors was acquired from LRS chambers supplied by the Mississippi Valley Regional Blood Center. […] After extensive washes to allow removal of non-adherent cells, monocytes (>95% purity) were harvested, counted and 5×10^5 cells were plated per well in 24-well plates. […]

EAE = EAE model of multiple sclerosis; format: in vivo, mouse; settings: daily DI administration
IκBζ [2] = experiment: IL-17A-induced IκBζ in primary mouse keratinocytes (western blot); format: cell-based; settings: DI 12 h, IL-17A 100 ng/ml
Method: as §1, with “(Bio-Rad). Membranes were exposed to X-Ray films (Research Products International Corp.) and developed using SRX-101A film processor (Konica Minolta). GAPDH run on the same blot was used as loading control. After scanning of original films image brightness of some blots was adjusted and bands were cropped using ImageJ. Densitometry was performed using ImageJ.” for “(Bio-Rad).”

Nfkbiz mRNA = experiment: Nfkbiz (Ikb-ζ) mRNA expression in BMDMs (qPCR); format: cell-based, mouse; settings: DI 12 h, then LPS
Method: BMDM were prepared from 6- to 12-week-old mice as described 1 and cultured in RMPI-1640 medium supplemented with 10% fetal bovine serum (FBS), 2 mM L-glutamine, and 100 U/mL penicillin-streptomycin and mouse recombinant M-CSF ([…], Peprotech). For experiments, cells were seeded at concentration 10^6 cells/mL in tissue culture plates of various formats. The cells were treated with DI (250 μM (unless stated otherwise), cat #592498, Sigma), DMF (50 μM (unless stated otherwise), cat #242926, Sigma), 3-(ethoxycarbonyl)but-3-enoic acid (3MI, 5 μM, Aris Pharmaceuticals Inc.), 4-ethoxy-2-methylene-4-oxobutanoic acid (MI, Aris Pharmaceuticals Inc.) for 12 h and activated with lipopolysaccharide (LPS; 100 ng/mL; E. coli 0111:B4, Sigma) for 1 h or as indicated. In some experiments cells were stimulated with combination of LPS (20 ng/mL) and IFN-γ (50 ng/mL; Peprotech). In some experiments cells were treated with α-tocopherol (AT, 10 μM; Sigma), MitoTEMPO (MT, 500 μM; Sigma), N-acetylcysteine (NAC, 1 mM, Sigma), ethylester of GSH (EtGSH; 1 mM, Santa Cruz) or buthionene sulfoximine (BSO, 500 μM, Sigma) alone or in combination with DI for 12 h. […]
RNA from cultured cells was isolated using a Total RNA I kit (OMEGA). […] Threshold cycle (CT) values for each sample were determined by automated threshold analysis. […]

human CD14+ monocytes = experiment: Cytokine production in LPS-stimulated human monocytes (ELISA); format: cell-based; settings: DI 12 h, LPS 24 h
Method: Cytokines in cell supernatants were analyzed using DuoSet® ELISA kits according to manufacturer protocol (R&D Systems). The supernatants from BMDMs were diluted 1:4, from human blood monocytes 1:3.
Blood from healthy donors was acquired from LRS chambers supplied by the Mississippi Valley Regional Blood Center. Peripheral blood mononuclear cells (PBMCs) from buffy coats were recovered from the Ficoll interface after a 400 g centrifugation for 30 min. Monocytes were isolated by adherence on a cell culture dish for 1 h at 37° C. and 5% C02 in RPMI containing 1% Human Serum Albumin (Albutein, Grifols, Spain). After extensive washes to allow removal of non-adherent cells, monocytes (>95% purity) were harvested, counted and 5×10^5 cells were plated per well in 24-well plates. The cells were treated with DI (125 μM if not stated otherwise) for 12 h and stimulated with LPS (100 ng/mL) for 1 h or as indicated. In some experiments cells were treated with DI in presence of EtGSH (1 mM, Santa Cruz).

HBL1 cells line (ABC) = experiment: DLBCL cell viability, resazurin assay, ABC subtype; format: cell-based; settings: HBL1, 4 days, refreshed daily; DI 125-250 μM

Question: With C=C(CC(=O)OC)C(=O)OC [DI, dimethyl itaconate] as the compound, how does the “IL17A-mediated Ikb-ζ induction” value (Ikb-ζ) read?
Answer: almost completely inhibited

Question: And the “LPS-induced Ikb-ζ protein levels” value (IκBζ [1])?
Answer: decreased Ikb-ζ protein levels; also recorded: completely abolished

Question: And the “clinical development of EAE” value (EAE)?
Answer: ameliorated; also recorded: prevented clinical development of EAE

Question: And the “IL-17-induced IκBζ induction” value (IκBζ [2])?
Answer: inhibited

Question: What about the “Ikb-ζ (Nfkbiz) mRNA level” value (Nfkbiz mRNA) of the same compound?
Answer: only moderate effect; also recorded: not changed

Question: And the LPS-induced cytokine production (human CD14+ monocytes)?
Answer: inhibition of cytokine production

Question: And the “growth / toxicity, ABC DLBCL” value (HBL1 cells line (ABC))?
Answer: selective toxicity towards ABC
